Experiments:
[1] = target: T1, SGK1 protein kinase (Homo sapiens, UniProt O00141); experiment: SGK1 protein kinase inhibition, filter binding method; format: biochemical; conditions: read-out: SGK1 enzyme inhibition IC50
T1 sequence (O00141 1-431): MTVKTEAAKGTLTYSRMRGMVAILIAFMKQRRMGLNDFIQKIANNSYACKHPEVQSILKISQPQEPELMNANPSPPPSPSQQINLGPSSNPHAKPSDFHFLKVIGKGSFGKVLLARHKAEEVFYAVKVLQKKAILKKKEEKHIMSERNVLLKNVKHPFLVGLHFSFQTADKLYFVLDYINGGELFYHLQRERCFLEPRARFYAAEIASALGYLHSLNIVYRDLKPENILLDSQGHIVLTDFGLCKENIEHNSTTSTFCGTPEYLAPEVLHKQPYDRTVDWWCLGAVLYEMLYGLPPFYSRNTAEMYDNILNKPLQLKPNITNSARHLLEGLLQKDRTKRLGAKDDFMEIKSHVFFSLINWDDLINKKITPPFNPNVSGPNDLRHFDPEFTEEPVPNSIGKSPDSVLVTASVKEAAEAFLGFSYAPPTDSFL
Excerpt: Further assays are known from the literature and could easily be carried out by the person skilled in the art (see, for example, Dhanabal et al., Cancer Res. 59:189-197; Xin et al., J. Biol. Chem. 274:9116-9121; Sheu et al., Anticancer Res. 18:4435-4441; Ausprunk et al., Dev. Biol. 38:237-248; Gimbrone et al., J. Natl. Cancer Inst. 52:413-427; Nicosia et al., In Vitro 18:538-549).
The inhibition of SGK1 protein kinase can be determined in the filter binding method.

[2] = test system: LCMV; set-up: species or system mice; conditions: mouse, in vivo
[3] = test system: colon carcinomas; experiment: Chemically induced (DMH/DSS) colon carcinomas in mice; format: in vivo; conditions: DMH/DSS-induced tumour genesis; 4.46 mg/g of feed (approx. 600 mg/kg) for 20 days, one week after the treatment; vs placebo
Method: To this end, colon tumours were induced chemically in the experimental animals (Wang J G, Wang D F, Lv B J, Si J M: A novel mouse model for colitis-associated colon carcinogenesis induced by 1,2-dimethylhydrazine and dextran sulfate sodium. World J Gastroenterol 2004; 10:2958-2962). Some of the experimental animals were subjected to three cycles of chemical tumour genesis at an age of 8 weeks. To this end, the animals were treated intraperitoneally with 20 mg/kg of 1,2-dimethylhydrazine (DMH; Sigma-Aldrich Corporation. St. Louis. Mo. USA). Starting one week later, distilled water containing 30 g/l of synthetic dextran sulfate sodium (DSS; molecular weight 5000; Wako Pure Chemical Industries Ltd. Japan) was administered to the animals three times for 7 days and distilled water was administered for a further 14 days (total duration 3×(1+2 weeks)=9 weeks in total). The remainder of the experimental animals (control animals) were instead supplied intraperitoneally by injection with 20 mg/kg of a 0.9% sodium chloride solution. All mice were anaesthetised with ether at the age of 22 weeks and subsequently killed.
One week after the treatment, either a placebo or the SGK1 inhibitor was administered for 20 days. The SGK1 inhibitor had been added to the feed in a mixing ratio of 4.46 mg/g of feed. This corresponds to an approximate dose of 600 mg/kg of body weight.

SMILES: CCc1c(C(=O)NNC(=O)[C@@H](O)c2cc(F)cc(F)c2)ccc(O)c1C [Ia, N′-[(S)-2-(3,5-Difluorophenyl)-2-hydroxyacetyl]-2-ethyl-4-hydroxy-3-methylbenzohydrazide]
- IC50 [1]: > 300 nM

SMILES: CCc1c(C(=O)NNC(=O)C(O)c2cc(F)cc(F)c2)ccc(O)c1C (racemic) [I, N′-[2-(3,5-Difluorophenyl)-2-hydroxyacetyl]-2-ethyl-4-hydroxy-3-methylbenzohydrazide]
- IC50 [1]: > 300 nM
- bilirubin concentration [2]: significantly reduced
- concentration of alanine aminotransferase [2]: significantly reduced
- growth of colon tumours [3]: significantly inhibited
